Laboratory results published in patent US8426447B2, “Spiro-tricyclic ring compounds as beta-secretase modulators and methods of use” (Amgen Inc., priority 2008, dated 2013).

What was measured:
[1] = molecular target: T1, BACE1 (Homo sapiens, UniProt P56817); experiment: In Vitro Enzymatic BACE FRET (Fluorescence Resonance Energy Transfer) Assay; type: biochemical
Outline: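 Cleavage of a 50 nM internally quenched peptide substrate is followed by fluorescence after a one-hour reaction in acidic acetate buffer, pH 4.2, terminated by Tris.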

[2] = molecular target: T1, BACE1; experiment: In Vitro BACE Cell-based Assay (HEK cell assay): Aβ40 in conditioned medium of cells stably expressing Amyloid Precursor Protein, sandwich ELISA
Outline: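 Conditioned medium Aβ40 by ELISA: pAb40 capture 3 h 4° C., biotin-6E10 detection 2 h 4° C., Streptavidin-Europium TRF. IC50 fitted from % control.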

[3] = Table III, IC50's in uM ranges, read-out: BACE1 FRET assay
[4] = Table III, IC50's in uM ranges, read-out: HEK cell assay
[5] = in vitro BACE FRET enzyme assay, IC50 class symbols, read-out: BACE1 FRET assay
[6] = HEK cell-based assay, Aβ40 in conditioned medium, IC50 class symbols, read-out: HEK cell assay
[7] = Table IV, class symbols, read-out: BACE1 FRET assay
[8] = Table IV, class symbols, read-out: HEK cell assay

T1 sequence (P56817 46-501, species assumed): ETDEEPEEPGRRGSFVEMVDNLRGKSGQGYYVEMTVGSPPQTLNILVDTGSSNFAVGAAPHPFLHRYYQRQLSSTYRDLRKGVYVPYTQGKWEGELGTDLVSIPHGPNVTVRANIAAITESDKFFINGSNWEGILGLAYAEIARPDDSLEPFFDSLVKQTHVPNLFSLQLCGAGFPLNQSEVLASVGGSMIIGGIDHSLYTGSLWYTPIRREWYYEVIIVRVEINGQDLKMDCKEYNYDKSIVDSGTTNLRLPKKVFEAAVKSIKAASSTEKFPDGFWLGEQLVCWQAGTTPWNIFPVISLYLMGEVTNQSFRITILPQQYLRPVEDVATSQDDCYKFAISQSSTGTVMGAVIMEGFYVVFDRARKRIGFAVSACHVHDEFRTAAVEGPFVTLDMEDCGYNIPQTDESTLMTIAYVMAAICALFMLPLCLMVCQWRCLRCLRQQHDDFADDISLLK

With `COCC#Cc1ccc2c(c1)[C@@]1(COC(N)=N1)c1cc(-c3cncnc3)ccc1O2` [156b] the IC50 [1, 3] was 0.1 to 1 µM and the IC50 [2, 4] was 0.1 to 1 µM.
For `COC(C)(C)C#Cc1ccc2c(c1)[C@@]1(COC(N)=N1)c1cc(OCC(C)(C)O)ccc1O2` [compound 768], the IC50 ([1]; read-out: BACE1 FRET assay) was 0.1 to 1 µM and the IC50 ([2]; read-out: HEK cell assay) was 0.1 to 1 µM.
With `Cc1cc(-c2ccc3c(c2)[C@]2(COC(N)=N2)c2cc(-c4cccnc4)ccc2O3)on1` [compound 693] the IC50 ([1]; read-out: BACE1 FRET assay) was less than 0.1 µM and the IC50 ([2]; read-out: HEK cell assay) was less than 0.1 µM.
In the case of `CN(C)CC#Cc1ccc2c(c1)[C@@]1(COC(N)=N1)c1cc(-c3cncnc3)ccc1O2` [117b], the IC50 [1, 3] is reported as 1 to 5 µM and the IC50 [2, 4] is reported as 0.1 to 1 µM.
Compound `COc1ccc(-c2ccc3c(c2)[C@]2(COC(N)=N2)c2cc(-c4cccnc4)ccc2O3)o1` [compound 711] has an IC50 ([1]; read-out: BACE1 FRET assay) of less than 0.1 µM and an IC50 ([2]; read-out: HEK cell assay) of 0.1 to 1 µM.
`Cn1cc(-c2cccc(-c3ccc4c(c3)[C@@]3(COC(N)=N3)c3cc(-c5cnn(C)c5)ncc3O4)c2)cn1` [compound 328] gave an IC50 [1, 5] of less than 0.1 µM and an IC50 [2, 6] of 0.1 to 1 µM.
`NC1=N[C@]2(CO1)c1cc(C3=CCOCC3)ccc1Oc1ccc(-c3cccnc3)cc12` [compound 715] showed an IC50 ([1]; read-out: BACE1 FRET assay) of less than 0.1 µM and an IC50 ([2]; read-out: HEK cell assay) of less than 0.1 µM.
Compound `NC1=N[C@]2(CO1)c1cc(C(=O)CCCO)ccc1Oc1ccc(-c3cccnc3)cc12` [compound 650] has an IC50 [1, 7] of less than 0.1 µM and an IC50 [2, 8] of 0.1 to 1 µM.
With `NC1=N[C@@]2(CO1)c1cc(-c3cccnc3)ccc1Oc1ncccc12` [compound 594] the IC50 [1, 7] was greater than 5 µM and the IC50 [2, 8] was greater than 5 µM.
In the case of `NC1=N[C@@]2(CO1)c1cc(-c3cccnc3F)ccc1Oc1cnc(C3=CCCCO3)cc12` [compound 371], the IC50 ([1]; BACE1 FRET assay (uM)) is reported as less than 0.1 µM and the IC50 ([2]; HEK cell assay (uM)) is reported as less than 0.1 µM.
In the case of `CCCOc1cc2c(cc1F)Oc1ccc(-c3cccnc3)cc1[C@@]21COC(N)=N1` [compound 938], the IC50 ([1]; read-out: BACE1 FRET assay) is reported as less than 0.1 µM and the IC50 ([2]; read-out: HEK cell assay) is reported as less than 0.1 µM.
Work on `CC(=O)c1ccccc1-c1ccc2c(c1)[C@]1(COC(N)=N1)c1cc(OCC(C)(C)C)ccc1O2` [compound 190] yielded an IC50 [1, 3] of 0.1 to 1 µM and an IC50 [2, 4] greater than 5 µM.
For `CCc1cc2c3c(ccc2o1)Oc1ncc(-c2cncnc2)cc1[C@]31COC(N)=N1` [compound 769], the IC50 ([1]; read-out: BACE1 FRET assay) was 0.1 to 1 µM and the IC50 ([2]; read-out: HEK cell assay) was 1 to 5 µM.
For `Cc1ccc(-c2ccc3c(c2)[C@]2(COC(N)=N2)c2cc(-c4cncnc4)ccc2O3)o1` [compound 880], the IC50 [1, 7] was less than 0.1 µM and the IC50 [2, 8] was less than 0.1 µM.
Compound `NC1=N[C@]2(CO1)c1cc(C3=CCOCC3)ccc1Oc1ccc(C3CC3)cc12` [compound 756] has an IC50 ([1]; read-out: BACE1 FRET assay) of 0.1 to 1 µM and an IC50 ([2]; read-out: HEK cell assay) of 1 to 5 µM.
`NC1=N[C@@]2(CO1)c1cc(-c3cncnc3)ccc1Oc1ccc(-c3cccc(O)c3)cc12` [compound 891] showed an IC50 [1, 7] of less than 0.1 µM and an IC50 [2, 8] of 0.1 to 1 µM.
For `CC(C)(O)COc1ccc2c(c1Br)[C@]1(COC(N)=N1)c1cc(-c3cccnc3)ccc1O2` [compound 944], the IC50 ([1]; read-out: BACE1 FRET assay) was less than 0.1 µM and the IC50 ([2]; read-out: HEK cell assay) was less than 0.1 µM.
`CC(C)C#Cc1cnc2c(c1)[C@]1(COC(N)=N1)c1cc(-c3cncnc3)ccc1O2` [compound 743] was tested, and the IC50 ([1]; read-out: BACE1 FRET assay) was less than 0.1 µM and the IC50 ([2]; read-out: HEK cell assay) was less than 0.1 µM.
Compound `NC1=N[C@]2(CO1)c1cc(OC[C@@H](O)C(F)(F)F)ccc1Oc1ccc(-c3cccnc3)cc12` [compound 925] has an IC50 ([1]; read-out: BACE1 FRET assay) of less than 0.1 µM and an IC50 ([2]; read-out: HEK cell assay) of 0.1 to 1 µM.
In the case of `NC1=N[C@@]2(CO1)c1cc(-c3ccc(F)cc3)ccc1Oc1ncc(C3=CCOCC3)cc12` [compound 583], the IC50 [1, 7] is reported as less than 0.1 µM and the IC50 [2, 8] is reported as less than 0.1 µM.
Work on `NC1=N[C@]2(CO1)c1cc(-c3cccnc3)ccc1Oc1cnc(-c3cccnc3)cc12` [compound 954] yielded an IC50 ([1]; read-out: BACE1 FRET assay) of less than 0.1 µM and an IC50 ([2]; read-out: HEK cell assay) of 0.1 to 1 µM.
`Cc1csc(-c2ccc3c(c2)[C@]2(COC(N)=N2)c2cc(-c4cccnc4)ccc2O3)c1` [compound 726] gave an IC50 ([1]; read-out: BACE1 FRET assay) of less than 0.1 µM and an IC50 ([2]; read-out: HEK cell assay) of 0.1 to 1 µM.
`COc1ccc2c(c1)[C@]1(COC(N)=N1)c1cc(NC(=O)c3ccccc3)ccc1O2` [compound 616] showed an IC50 [1, 7] of 1 to 5 µM and an IC50 [2, 8] of 1 to 5 µM.
Compound `NC1=N[C@@]2(CO1)c1cc(-c3cncc(F)c3)ccc1Oc1cnc(C3CCOCC3)cc12` [compound 331] has an IC50 [1, 5] of less than 0.1 µM and an IC50 [2, 6] of less than 0.1 µM.
`CC(C)(C#N)COc1ccc2c(c1)[C@]1(COC(N)=N1)c1cc(C#CC3CC3)ccc1O2` [compound 178] gave an IC50 [1, 3] of less than 0.1 µM and an IC50 [2, 4] of 0.1 to 1 µM.
Compound `Cn1ccc2cc(-c3ccc4c(c3)[C@@]3(COC(N)=N3)c3cc(OCC(C)(C)C)ccc3O4)ccc21` [compound 914] has an IC50 [1, 7] of 0.1 to 1 µM and an IC50 [2, 8] greater than 5 µM.
With `COc1ccc2c(c1)[C@@]1(COC(N)=N1)c1cc(-c3cccnc3)cnc1O2` [compound 670] the IC50 ([1]; read-out: BACE1 FRET assay) was 0.1 to 1 µM and the IC50 ([2]; read-out: HEK cell assay) was 1 to 5 µM.
Work on `NC1=N[C@@]2(CO1)c1cc(-c3cc(Cl)ccc3F)ccc1Oc1ncc(C3CCOCC3)cc12` [compound 404] yielded an IC50 [1, 5] of less than 0.1 µM and an IC50 [2, 6] of less than 0.1 µM.
